Measurements reported in US11339130B1 (Blade Therapeutics, Inc., priority 2016, dated 2022).

Key:
[1] = tested on: Calpain activity in SH-SY5Y cells (SBDP-150); assay: SH-SY5Y Spectrin western blot assay (SBDP-150 breakdown product, A23187-induced); type: cell-based; settings: Homo sapiens; SH-SY5Y cells, A23187-induced SBDP-150, western blot; read-out: SH-SY5Y Spectrin IC50
Human Calpain 2/NS1 = molecular target: T1, Human Calpain 2/NS1 (Homo sapiens, UniProt P17655); assay: Calpain inhibition continuous fluorescence (FRET) assay, Human Calpain 2/NS1; type: biochemical; settings: read-out: Human Calpain 2/NS1 IC50
T1 sequence (P17655 1-700): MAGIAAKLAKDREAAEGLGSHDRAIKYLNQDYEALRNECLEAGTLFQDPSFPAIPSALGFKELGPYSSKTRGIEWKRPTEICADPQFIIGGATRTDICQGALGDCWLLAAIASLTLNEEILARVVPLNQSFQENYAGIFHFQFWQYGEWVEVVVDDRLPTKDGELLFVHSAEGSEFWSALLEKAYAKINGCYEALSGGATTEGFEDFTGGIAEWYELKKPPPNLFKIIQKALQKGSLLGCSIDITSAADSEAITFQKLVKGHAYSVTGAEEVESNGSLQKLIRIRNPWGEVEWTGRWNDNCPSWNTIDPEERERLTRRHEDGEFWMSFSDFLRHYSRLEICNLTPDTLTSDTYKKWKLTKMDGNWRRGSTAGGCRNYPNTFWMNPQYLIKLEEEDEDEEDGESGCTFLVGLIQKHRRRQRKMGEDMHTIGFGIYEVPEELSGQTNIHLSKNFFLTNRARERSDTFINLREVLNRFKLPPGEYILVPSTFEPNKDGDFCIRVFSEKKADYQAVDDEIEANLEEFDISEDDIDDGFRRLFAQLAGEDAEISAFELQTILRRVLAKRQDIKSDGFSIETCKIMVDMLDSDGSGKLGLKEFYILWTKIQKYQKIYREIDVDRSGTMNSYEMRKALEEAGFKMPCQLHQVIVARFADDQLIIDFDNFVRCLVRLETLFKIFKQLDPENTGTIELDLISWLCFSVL
T1 sequence (P04632 1-268 partner): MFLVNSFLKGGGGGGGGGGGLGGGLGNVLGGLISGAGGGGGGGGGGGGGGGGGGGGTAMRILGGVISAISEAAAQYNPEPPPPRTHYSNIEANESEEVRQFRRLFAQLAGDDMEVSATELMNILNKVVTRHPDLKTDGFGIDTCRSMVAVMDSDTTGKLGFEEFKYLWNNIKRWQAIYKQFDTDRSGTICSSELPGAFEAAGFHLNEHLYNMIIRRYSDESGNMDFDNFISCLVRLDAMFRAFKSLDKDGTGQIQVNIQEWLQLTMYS
In short: (§1)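 Buffer 50 mM Tris pH 7.5/100 mM NaCl/1 mM DTT; enzyme + cpd preinc 25C; start w/ FRET substrate + CaCl2; kinetic 490/520 nm, 10 min; slopes 1-5 min; 4-PL IC50.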

Human Calpain 1/NS1 = molecular target: T2, Human Calpain 1/NS1 (Homo sapiens, UniProt P07384); assay: Calpain inhibition continuous fluorescence (FRET) assay, Human Calpain 1/NS1; type: biochemical; settings: read-out: Human Calpain 1/NS1 IC50
T2 sequence (P07384 1-714): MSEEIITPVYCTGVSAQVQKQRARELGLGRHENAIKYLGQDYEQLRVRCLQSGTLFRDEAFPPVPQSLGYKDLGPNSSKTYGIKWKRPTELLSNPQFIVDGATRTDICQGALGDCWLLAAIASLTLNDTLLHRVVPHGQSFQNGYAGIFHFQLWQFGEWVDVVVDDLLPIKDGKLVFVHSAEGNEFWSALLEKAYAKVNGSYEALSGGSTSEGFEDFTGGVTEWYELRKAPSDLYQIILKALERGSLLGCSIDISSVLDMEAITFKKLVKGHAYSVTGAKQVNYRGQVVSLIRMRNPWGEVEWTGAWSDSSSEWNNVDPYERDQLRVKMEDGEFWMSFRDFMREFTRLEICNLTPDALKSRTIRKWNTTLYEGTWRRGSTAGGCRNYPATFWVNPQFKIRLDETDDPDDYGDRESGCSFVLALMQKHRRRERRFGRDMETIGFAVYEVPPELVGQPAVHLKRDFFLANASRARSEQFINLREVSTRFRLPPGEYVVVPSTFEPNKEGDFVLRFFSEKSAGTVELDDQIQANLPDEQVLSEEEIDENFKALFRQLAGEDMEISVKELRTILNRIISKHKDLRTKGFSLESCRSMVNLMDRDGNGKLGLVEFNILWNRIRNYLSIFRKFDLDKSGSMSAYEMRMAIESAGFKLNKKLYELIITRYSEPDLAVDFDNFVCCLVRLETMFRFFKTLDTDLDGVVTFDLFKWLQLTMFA
T2 sequence (P04632 1-268 partner): T1 sequence (P04632 1-268 partner)
In short: as §1

[2] = tested on: Calpain activity in SH-SY5Y cells; assay: SH-SY5Y + AMC fluorescence assay (Suc-LLVY-AMC substrate); type: cell-based; settings: read-out: SH-SY5Y + AMC IC50
Human Calpain 9/NS1 = molecular target: T3, Human Calpain 9/NS1 (Homo sapiens, UniProt O14815); assay: Calpain inhibition continuous fluorescence (FRET) assay, Human Calpain 9/NS1; type: biochemical; settings: read-out: Human Calpain 9/NS1 IC50
T3 sequence (O14815 1-690): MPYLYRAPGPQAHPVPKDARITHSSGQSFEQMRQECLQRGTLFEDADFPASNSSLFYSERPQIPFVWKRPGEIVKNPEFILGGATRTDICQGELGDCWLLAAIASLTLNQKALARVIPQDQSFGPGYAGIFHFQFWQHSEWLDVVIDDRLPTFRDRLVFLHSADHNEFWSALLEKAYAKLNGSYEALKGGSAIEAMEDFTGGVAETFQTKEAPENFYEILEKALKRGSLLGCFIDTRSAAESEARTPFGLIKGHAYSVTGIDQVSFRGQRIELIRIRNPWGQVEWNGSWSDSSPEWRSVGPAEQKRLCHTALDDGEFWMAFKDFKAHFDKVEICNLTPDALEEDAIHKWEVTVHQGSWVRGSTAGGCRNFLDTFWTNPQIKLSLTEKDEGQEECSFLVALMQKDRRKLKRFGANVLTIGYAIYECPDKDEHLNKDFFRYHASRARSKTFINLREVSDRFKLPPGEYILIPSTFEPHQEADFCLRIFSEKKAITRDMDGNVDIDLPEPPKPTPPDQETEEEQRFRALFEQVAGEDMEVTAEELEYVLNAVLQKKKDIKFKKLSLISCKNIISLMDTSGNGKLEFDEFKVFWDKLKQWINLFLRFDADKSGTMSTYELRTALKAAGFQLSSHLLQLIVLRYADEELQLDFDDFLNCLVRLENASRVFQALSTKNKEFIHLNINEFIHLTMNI
T3 sequence (P04632 1-268 partner): T1 sequence (P04632 1-268 partner)
In short: as §1

Row | SMILES | IC50 [1] [µM] | IC50 (Human Calpain 2/NS1) [µM] | IC50 (Human Calpain 1/NS1) [µM] | IC50 [2] [µM] | IC50 (Human Calpain 9/NS1) [µM]
1 | CC[C@@H](C)[C@H](NC(=O)c1oc(C)nc1-c1ccccc1)C(=O)C(N)=O [Compound 387, N-((3S,4R)-1-amino-4-methyl-1,2-dioxohexan-3-yl)-2-methyl-4-phenyloxazole-5-carboxamide] | > 25 | < 3 | < 3 | > 25 | < 3
2 | NC(=O)C(=O)C(Cc1ccccc1)NC(=O)c1nc(C2CC2)oc1-c1ccccc1 (centres unmarked) [Compound 394, N-(4-amino-3,4-dioxo-1-phenylbutan-2-yl)-2-cyclopropyl-5-phenyloxazole-4-carboxamide] | > 25 | < 3 | < 3 | > 25 | < 3
3 | Cc1cc(C(=O)NC(C=O)Cc2ccccc2)n(-c2ccccn2)n1 (centres unmarked) [Compound 398, 3-methyl-N-(1-oxo-3-phenylpropan-2-yl)-1-(pyridin-2-yl)-1H-pyrazole-5-carboxamide] | > 25 | < 3 | < 3 | > 25 | < 3
4 | Cc1cc(C(=O)NC(C=O)Cc2ccccc2)n(-c2ccc(C(F)(F)F)cn2)n1 (centres unmarked) [Compound 399, 3-methyl-N-(1-oxo-3-phenylpropan-2-yl)-1-(5-(trifluoromethyl)pyridin-2-yl)-1H-pyrazole-5-carboxamide] | > 25 | < 3 | < 3 | > 25 | 3 to 10
5 | Cc1cc(C(=O)NC(C=O)Cc2ccccc2)n(-c2cccc(COCc3ccccc3)c2)n1 (centres unmarked) [Compound 400, 1-(3-((benzyloxy)methyl)phenyl)-3-methyl-N-(1-oxo-3-phenylpropan-2-yl)-1H-pyrazole-5-carboxamide] | > 25 | < 3 | < 3 | > 25 | < 3
6 | Cn1cc(C(=O)NC(Cc2ccccc2)C(=O)C(N)=O)c(Cn2ncc3cnccc32)n1 (centres unmarked) [Compound 408, 3-((1H-pyrazolo[4,3-c]pyridin-1-yl)methyl)-N-(4-amino-3,4-dioxo-1-phenylbutan-2-yl)-1-methyl-1H-pyrazole-4-carboxamide] | 10 to 25 | 3 to 10 | > 10 | < 10 | > 10
7 | N#Cc1ccc(-c2nn(C3CC3)cc2C(=O)NC(Cc2ccccc2)C(=O)C(N)=O)cn1 (centres unmarked) [Compound 413, N-(4-amino-3,4-dioxo-1-phenylbutan-2-yl)-3-(6-cyanopyridin-3-yl)-1-cyclopropyl-1H-pyrazole-4-carboxamide] | > 25 | < 3 | < 3 | > 25 | < 3

The next lines start with the values.

Row | IC50 [1] [µM] | IC50 (Human Calpain 2/NS1) [µM] | IC50 (Human Calpain 1/NS1) [µM] | IC50 [2] [µM] | IC50 (Human Calpain 9/NS1) [µM] | SMILES
8 | < 10 | < 3 | < 3 | 10 to 25 | < 3 | Cc1cc(C)cc(C[C@H](NC(=O)c2oc(C)nc2-c2ccccc2)C(=O)C(N)=O)c1 [Compound 388, (S)—N-(4-amino-1-(3,5-dimethylphenyl)-3,4-dioxobutan-2-yl)-2-methyl-4-phenyloxazole-5-carboxamide]
9 | < 10 | < 3 | < 3 | < 10 | < 3 | Cc1nc(-c2ccccc2)c(C(=O)N[C@@H](Cc2c[nH]c3ccccc23)C(=O)C(N)=O)o1 [Compound 389, (S)—N-(4-amino-1-(1H-indol-3-yl)-3,4-dioxobutan-2-yl)-2-methyl-4-phenyloxazole-5-carboxamide]
10 | 10 to 25 | > 10 | > 10 | < 10 | > 10 | COc1cc(C(=O)NC(Cc2ccccc2)C(=O)C(N)=O)n(-c2ccccc2)n1 (centres unmarked) [Compound 392, N-(4-amino-3,4-dioxo-1-phenylbutan-2-yl)-3-methoxy-1-phenyl-1H-pyrazole-5-carboxamide]
11 | 10 to 25 | < 3 | < 3 | < 10 | < 3 | NC(=O)C(=O)C(Cc1ccccc1)NC(=O)c1oc(C2CC2)nc1-c1ccccc1 (centres unmarked) [Compound 393, N-(4-amino-3,4-dioxo-1-phenylbutan-2-yl)-2-cyclopropyl-4-phenyloxazole-5-carboxamide]
12 | < 10 | < 3 | < 3 | 10 to 25 | < 3 | O=CC(Cc1ccccc1)NC(=O)c1cn(C(F)F)nc1-c1ccccc1 (centres unmarked) [Compound 396, 1-(difluoromethyl)-N-(1-oxo-3-phenylpropan-2-yl)-3-phenyl-1H-pyrazole-4-carboxamide]
13 | < 10 | < 3 | < 3 | > 25 | < 3 | O=CC(Cc1ccccc1)NC(=O)c1cnoc1-c1ccccc1 (centres unmarked) [Compound 397, N-(1-oxo-3-phenylpropan-2-yl)-5-phenylisoxazole-4-carboxamide]
14 | < 10 | < 3 | < 3 | > 25 | < 3 | O=CC(Cc1ccccc1)NC(=O)c1nsnc1-c1ccccc1 (centres unmarked) [Compound 401, N-(1-oxo-3-phenylpropan-2-yl)-4-phenyl-1,2,5-thiadiazole-3-carboxamide]
15 | 10 to 25 | < 3 | < 3 | > 25 | < 3 | Cc1nc(-c2ccccc2F)c(C(=O)NC(C=O)Cc2ccccc2)o1 (centres unmarked) [Compound 402, 4-(2-fluorophenyl)-2-methyl-N-(1-oxo-3-phenylpropan-2-yl)oxazole-5-carboxamide]
16 | 10 to 25 | < 3 | < 3 | 10 to 25 | < 3 | COc1cccc(-c2nn(C)cc2C(=O)NC(Cc2ccccc2)C(=O)C(N)=O)c1 (centres unmarked) [Compound 407, N-(4-amino-3,4-dioxo-1-phenylbutan-2-yl)-3-(3-methoxyphenyl)-1-methyl-1H-pyrazole-4-carboxamide]
